Data reported in patent US20250205341A1, “PROTEIN DELIVERY COMPOSITION CONTAINING BILE SALT AND CATIONIC PEPTIDE AND USE THEREOF” (BION INC., priority 2022, published 2025).
Non-standard residues stand in square brackets, D forms with d. No end group written: not given here.

Key:
Type in all cases: in vivo
[1] = test system: C57BL/6 mice maintaining normal blood glucose levels; assay: Insulin absorption upon oral administration (into the stomach using a zonde), blood glucose lowering; settings: 100 mM taurocholate + 2U/kg insulin + 0.1, 1, 10 μM SEQ6 or 1, 10, 100 μM SEQ2; FIG. 2
Description: Examination was made of the change in insulin absorption upon oral administration of bile salts and/or peptides represented by SEQ ID NOS: 1 to 18. The absorption rate of insulin was indicated by measuring the blood glucose-lowering rate after insulin administration.
Specifically, C57BL/6 mice maintaining normal blood glucose levels were prepared, and blood glucose levels were measured using an Accu-Chek glucometer before administering insulin with bile salts and/or cationic peptides. Insulin, along with bile salts and/or cationic peptides, was administered directly into the stomach using a zonde, and blood glucose changes were measured over time.

[2] = test system: C57BL/6 mice maintaining normal blood glucose levels; assay: Insulin absorption in sublingual mucosal tissue, blood glucose lowering after sublingual administration; settings: sublingual 10 μl; 100 mM taurocholate and/or 1 μM SEQ6 with 2U/kg insulin; FIG. 1
Description: All cationic peptides used in the experiment were synthesized by AnyGen Co., Ltd. The absorption rate of insulin was indicated by measuring the blood glucose-lowering rate after insulin administration.
Specifically, C57BL/6 mice (Orient Bio, Korea) maintaining normal blood glucose levels were anesthetized by intraperitoneal injection of Ketamine/Xylazine (100 mg/kg and 10 mg/kg, respectively) (BK Pharm, Korea). […] Each experimental group received 10 μl of the solution administered to the sublingual mucosa, and blood glucose changes were measured over time.

[3] = test system: C57BL/6 mice maintaining normal blood glucose levels; assay: Insulin absorption upon topical (skin) application, blood glucose change; settings: 50 μl on shaved skin, with mixture of taurocholate and SEQ6; FIG. 8
Excerpt: Examination was made of the change in insulin absorption upon topical application due to bile salts and/or peptides represented by SEQ ID NO: 1 to SEQ ID NO: 18. The absorption rate of insulin was indicated by measuring the blood glucose-lowering rate after insulin administration. Specifically, C57BL/6 mice maintaining normal blood glucose levels were shaved on the back using a depilatory cream the day before the experiment. On the day of the experiment, the mice were anesthetized by intraperitoneal injection of Ketamine/Xylazine (100 mg/kg and 10 mg/kg, respectively). After confirming stable anesthesia, blood glucose levels were measured using an Accu-Chek glucometer before administering insulin with bile salts and/or cationic peptides. A 50 μl volume of the solution was applied to the shaved skin, and blood glucose changes were measured over time.

| Substance | insulin absorption (blood glucose-lowering effect) upon oral administration [1] | blood glucose-lowering rate by insulin (insulin absorption through sublingual mucosal tissue) [2] | blood glucose-lowering effect of insulin upon topical application [3] |
| --- | --- | --- | --- |
| rrrrrr ([dR][dR][dR][dR][dR][dR]) [SEQ6] | significantly increases in a dose-dependent manner | low | – |
| insulin: insulin (Humulin N, Korea Lilly, Korea) | – | – | excellent blood glucose-lowering effect |
| RRRRRR [SEQ2] | significantly increases in a dose-dependent manner | – | – |
